Laboratory results reported in article PMC3169404, “Inhibitor-bound complexes of dihydrofolate reductase-thymidylate synthase from Babesia bovis” (Acta Crystallographica Section F: Structural Biology and …, 2011).

Key:
[1] = target: T1, BbDHFR-TS (Babesia bovis, UniProt A7ASX7); test: X-ray crystal structures (co-purified 3k2h; cocrystallisation 3nrr); type: binding; conditions: DHFR site; with pemetrexed (3k2h) or raltitrexed (3nrr); oxidation state not stated beyond NADP
T1 construct: gene BBOV_II000780; full length 1-511, N-terminal 6xHis-Smt tag removed by Ulp1 without remnant, expressed in E. coli BL21 (DE3); DHFR about 1-186, 40-residue linker, TS C-terminal 285 residues
T1 sequence (A7ASX7 1-511): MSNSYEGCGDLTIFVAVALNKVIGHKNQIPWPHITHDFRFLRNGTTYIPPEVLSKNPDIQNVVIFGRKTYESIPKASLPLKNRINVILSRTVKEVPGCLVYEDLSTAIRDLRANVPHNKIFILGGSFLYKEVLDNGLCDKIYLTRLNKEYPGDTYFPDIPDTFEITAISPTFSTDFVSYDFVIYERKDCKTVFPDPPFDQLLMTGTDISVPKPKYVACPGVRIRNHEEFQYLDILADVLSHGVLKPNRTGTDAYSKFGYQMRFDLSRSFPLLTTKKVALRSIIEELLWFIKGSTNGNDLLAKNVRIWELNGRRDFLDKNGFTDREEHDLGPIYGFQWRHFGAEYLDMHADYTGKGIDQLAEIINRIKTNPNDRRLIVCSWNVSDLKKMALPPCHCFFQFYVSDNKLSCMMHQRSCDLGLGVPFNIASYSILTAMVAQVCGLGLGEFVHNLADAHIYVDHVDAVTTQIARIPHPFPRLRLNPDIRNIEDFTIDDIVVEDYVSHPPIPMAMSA

[2] = target: T1, BbDHFR-TS; test: X-ray crystal structure, […] Å, soak; type: binding; conditions: in both TS site (with dUMP) and DHFR site (with NADP); 2 mM pemetrexed, 2.0 mM dUMP; PEG 8000, CHES pH 9.5, 289 K
[3] = target: T1, BbDHFR-TS; test: X-ray crystal structure, […] Å, cocrystallisation; type: binding; conditions: in both TS site (with dUMP) and DHFR site (with NADP); 5 mM raltitrexed, 2 mM dUMP, 2 mM NADP; 20 mM MgCl2, HEPES pH 7.5, 289 K
[4] = target: T1, BbDHFR-TS; test: X-ray crystal structures (soak 3k2h; cocrystallisation 3nrr); type: binding; conditions: TS active site; ternary complex with pemetrexed (3k2h) or raltitrexed (3nrr)
[5] = target: dihydrofolate reductase-thymidylate synthase from B. bovis (Babesia bovis (Texas T2Bo isolate)); test: crystal structure; three crystal structures of BbDHFR-TS (apo; with dUMP, NADP and pemetrexed; with dUMP, NADP and raltitrexed); space group P1, homodimer in the asymmetric unit; crystals grown at 289 K, data at 100 K

NC(=O)c1ccc[n+]([C@@H]2O[C@H](COP(=O)(O)OP(=O)(O)OC[C@H]3O[C@@H](n4cnc5c(N)ncnc54)[C@H](OP(=O)(O)O)[C@@H]3O)[C@@H](O)[C@H]2O)c1 [NADP]
X-ray crystal structures (co-purified 3k2h; cocrystallisation 3nrr) [1]: pemetrexed and NADP bound in the DHFR subunit

Nc1nc(=O)c2c(CCc3ccc(C(=O)N[C@@H](CCC(=O)O)C(=O)O)cc3)c[nH]c2[nH]1 [PTX, pemetrexed]
X-ray crystal structure, 2.2 Å, soak [2]: contains the antifolate pemetrexed and dUMP bound in the TS subunit and pemetrexed and NADP

Cc1nc2ccc(CN(C)c3ccc(C(=O)N[C@@H](CCC(=O)O)C(=O)O)s3)cc2c(=O)[nH]1 [RTX, raltitrexed]
X-ray crystal structure, 1.8 Å, cocrystallisation [3]: raltirexed rather than pemetrexed in both folate sites, as well as dUMP and NADP

O=c1ccn([C@H]2C[C@H](O)[C@@H](COP(=O)(O)O)O2)c(=O)[nH]1 [dUMP]
X-ray crystal structures (soak 3k2h; cocrystallisation 3nrr) [4]: contains the antifolate pemetrexed and dUMP bound in the TS subunit

dihydrofolate reductase-thymidylate synthase from B. bovis (enzyme)
stoichiometry N [5]: 2
